This note sets out measurements from publication PMC6792352, “Limited Chemical Structural Diversity Found to Modulate Thyroid Hormone Receptor in the Tox21 Chemical Library” (Environmental Health Perspectives, 2019).

Where a name gives a salt, the structure may show the parent alone.

This data set can be described thus: in vitro. Conditions: rat, gh3-tre-luc cells.

What is called CC50 is the concentration giving 50% cytotoxicity. A lower CC50 goes with harm at low concentration. Turning to `CCC(=O)O[C@]1(C(=O)CCl)[C@@H](C)C[C@H]2[C@@H]3C[C@H](F)C4=CC(=O)C=C[C@]4(C)[C@@]3(F)[C@@H](O)C[C@@]21C` [Halobetasol propionate], where the note is “AC50 (uM) modified / 1000”, the CC50 at 24 h is more than 50 µM.
As to `ClC1=C(Cl)[C@]2(Cl)[C@H]3[C@H]([C@H]4C=C[C@@H]3C4)[C@@]1(Cl)C2(Cl)Cl` [Isodrin], the half-maximal cytotoxic concentration (CC50) at 24 h (AC50 (uM) modified / 1000, Tox21_110001=Tox21_301429, viability, 1 nM T3 present, 24 h) is 66.4 µM.
Regarding `C=C(C)C1CCC(C)(O)CC1` (stereo not drawn) [beta-Terpineol], under “AC50 (uM) modified / 1000”, the CC50 at 24 h is more than 90 µM.
In turn, `C=CC(=O)OCCOC(=O)CCC(=O)O` [4-[2-(Acryloyloxy)ethoxy]-4-oxobutanoic acid] displayed a CC50 at 24 h (AC50 (uM) modified / 1000) of more than 90 µM.
Still for that read-out and setting: in the case of `COC(=O)C(Cl)C(=O)OC` [Dimethyl chloromalonate] it was more than 50 µM; in that of `O=C(O)[C@H]1/C(=C/CO)O[C@@H]2CC(=O)N21` [Clavulanate lithium], more than 50 µM.
In the case of `C=CCc1cc(OC)c2c(c1)OCO2` [Myristicin], the 50% cytotoxic concentration (CC50) at 24 h (AC50 (uM) modified / 1000, Tox21_110001=Tox21_200172, viability, 1 nM T3 present, 24 h) is more than 100 µM.
Under “AC50 (uM) modified / 1000”, `NS(=O)(=O)c1cc(Cl)c(Cl)c(S(N)(=O)=O)c1` [Dichlorphenamide] displayed a CC50 at 24 h of more than 20 µM.
The same measure, in the same setting: in the case of `CC(N/C(=N\C#N)Nc1ccncc1)C(C)(C)C` (stereo not shown) [Pinacidil monohydrate] it was more than 50 µM; in that of `NC(=O)CC[C@@H](N)C(=O)O` [D-Glutamine], more than 50 µM; in that of `CC1(C)N=C(N)N=C(N)N1c1ccc(Cl)cc1` [Cycloguanil hydrochloride], more than 50 µM.
For `O=Nc1ccc(NO)cc1` [p-Benzoquinone dioxime], the CC50 at 24 h (AC50 (uM) modified / 1000) was more than 100 µM.
In the case of `CC(C)C(C)(N)C#N` (stereo not shown) [2-Amino-2,3-dimethylbutanenitrile], the half-maximal cytotoxic concentration (CC50) at 24 h (AC50 (uM) modified / 1000, Tox21_110001=Tox21_302196, viability, 1 nM T3 present, 24 h) is more than 90 µM.
Where the note is “AC50 (uM) modified / 1000”, `CN(C)c1ccc(N(C)C)cc1` [N,N,N',N'-Tetramethyl-p-phenylenediamine] displayed a half-maximal cytotoxic concentration (CC50) at 24 h of 58.6 µM.
The same measure, in the same setting: in the case of `Cc1ccc(C(=O)O)cc1[N+](=O)[O-]` [4-Methyl-3-nitrobenzoic acid] it was more than 90 µM.
Still for that read-out and setting: in the case of `CN(C)CCCN1c2ccccc2CCc2ccc(Cl)cc21` [Clomipramine hydrochloride] it was 7.67 µM.
`Cc1cc(Cl)ccc1OCCCC(=O)O` [MCPB]: the cytotoxic concentration (CC50) at 24 h reads like this: (AC50 (uM) modified / 1000, Tox21_110001=Tox21_201319, viability, 1 nM T3 present, 24 h) more than 100 µM; (AC50 (uM) modified / 1000, Tox21_110001=Tox21_303338, viability, 1 nM T3 present, 24 h) more than 90 µM.
Take `NC(N)=NN=C(/C=C/c1ccc([N+](=O)[O-])o1)/C=C/c1ccc([N+](=O)[O-])o1` [Nitrovin]: the CC50 at 24 h (AC50 (uM) modified / 1000) was 1.82 µM.
The same measure, in the same setting: in the case of `CCNC(=S)NCC` [N,N'-Diethylthiourea] it was more than 90 µM.
Still for that read-out and setting: in the case of `CO[C@@]1(NC(=O)CSCC#N)C(=O)N2C(C(=O)O)=C(CSc3nnnn3C)CS[C@@H]21` [Cefmetazole sodium] it was more than 50 µM; in that of `O=c1ccc2cc(O[C@@H]3O[C@H](CO)[C@@H](O)[C@H](O)[C@H]3O)c(O)cc2o1` [Esculin], more than 20 µM; in that of `N#Cc1ccc2c(c1)N(CCCN1CCC(O)CC1)c1ccccc1S2` [Periciazine], 14.3 µM.
For the molecule `CC(C)(O)c1ccccc1` [2-Phenylpropan-2-ol], the CC50 at 24 h (AC50 (uM) modified / 1000) is more than 90 µM.
Same read-out and setting: in the case of `OCCN1CCN(CCCN2c3ccccc3Sc3ccc(C(F)(F)F)cc32)CC1` [Fluphenazine] it was 5.76 µM; in that of `O=C1CCCCCO1` [Caprolactone], more than 90 µM.
Take `O=C(Oc1ccccc1)c1ccc2ccccc2c1O` [Phenyl 1-hydroxy-2-naphthoate]: the 50% cytotoxic concentration (CC50) at 24 h (AC50 (uM) modified / 1000) is more than 90 µM.
Same read-out and setting: in the case of `COc1cc(C(=O)NC2CCCNC2)cc(OC)c1OC` (stereo not shown) [Troxipide] it was more than 50 µM.
Still for that read-out and setting: in the case of `Cc1cccc(O)c1N` [2-Amino-m-cresol] it was 66.6 µM; in that of `Oc1cccc(O)c1O` [Pyrogallol], 44.6 µM; in that of `CCCCS` [1-Butanethiol], more than 90 µM.
On the same count and under the same terms, in the case of `CCC1COC(=O)O1` (stereo not shown) [Butylene carbonate] it was more than 90 µM.
With `C[C@@H](N)C(=O)c1ccccc1` [(R)-(+)-Cathinone hydrochloride], the half-maximal cytotoxic concentration (CC50) at 24 h (AC50 (uM) modified / 1000) is more than 100 µM.
Regarding `CSCCC=O` [3-(Methylthio)propanal], the cytotoxic concentration (CC50) at 24 h (AC50 (uM) modified / 1000) is more than 100 µM.
With `COc1cc(NS(C)(=O)=O)ccc1Nc1c2ccccc2nc2ccccc12` [Amsacrine hydrochloride], the midpoint of cytotoxicity (AC50 (uM) modified / 1000), the CC50 at 24 h, lay at 0.432 µM.
Same read-out and setting: in the case of `C[C@]12CC[C@@H]3c4ccc(OC(=O)c5ccccc5)cc4CC[C@H]3[C@@H]1CC[C@@H]2O` [Estradiol benzoate] it was more than 50 µM.
The same measure, in the same setting: in the case of `CC(CCl)OP(=O)(OC(C)CCl)OC(C)CCl` (stereo not shown) [Tris(2-chloroisopropyl)phosphate] it was more than 90 µM; in that of `COc1cc(S(=O)(=O)O)c(C)cc1N=Nc1c(O)ccc2cc(S(=O)(=O)O)ccc12` [Allura Red C.I.16035], 37.7 µM; in that of `CC(=O)CCC(C)C` [5-Methyl-2-hexanone], more than 90 µM.
On the same count and under the same terms, in the case of `CN1CCC(O)(c2ccc(F)cc2)C(C(=O)c2ccc(F)cc2)C1` (stereo not shown) [Flazalone] it was 19.6 µM; in that of `Cc1ccc(C(C)(C)C)cc1` [4-tert-Butyltoluene], more than 90 µM.
The molecule `Cc1ccc(C#N)cc1` [4-Methylbenzonitrile] registered a half-maximal cytotoxic concentration (CC50) at 24 h (AC50 (uM) modified / 1000) of more than 90 µM.
On the same count and under the same terms, in the case of `CC(=O)Oc1ccccc1C(N)=O` [Acetylsalicylamide] it was more than 50 µM.
On the same count and under the same terms, in the case of `CCCCCCCCCCCc1ccccc1` [1-Phenylundecane] it was more than 90 µM.
On the same count and under the same terms, in the case of `CS(=O)(=O)NC(=O)CCC/C=C\C[C@H]1C(=O)C[C@@H](O)[C@@H]1/C=C/[C@@H](O)COc1ccccc1` [Sulprostone] it was more than 50 µM.
Under “AC50 (uM) modified / 1000, Tox21_110001=Tox21_111817, viability, 1 nM T3 present, 24 h”, `O=C1C[N+]([O-])=C(c2ccccc2)c2cc(Cl)ccc2N1` [Demoxepam] came in with a CC50 at 24 h of more than 50 µM.
For `CC(=O)CC(C)C` [4-Methyl-2-pentanone], for the setting “AC50 (uM) modified / 1000”, the CC50 at 24 h is more than 90 µM.
Molecule `CCOC(=O)OCC/C(SC(=O)OCC)=C(\C)N(C=O)Cc1cnc(C)nc1N` [Dicethiamine hydrochloride] had a CC50 at 24 h (AC50 (uM) modified / 1000) of more than 50 µM.
The same measure, in the same setting: in the case of `CC(C)C[C@@H]1NC(=O)[C@H](CCCN)NC(=O)[C@H](C(C)C)NC(=O)[C@H](Cc2ccc(O)cc2)N[C@@H](CCC(=O)O)C(=O)N[C@@H](CC(N)=O)C(=O)[C@@H](Cc2ccccc2)NC(=O)[C@H](Cc2ccccc2)NC(=O)[C@@H]2CCCN2C(=O)[C@@H](Cc2ccccc2)NC1=O` [Tyrothricin] it was 1.25 µM.
The same measure, in the same setting: in the case of `O=C(O)CCNC(=O)c1ccccc1` [Betamipron] it was more than 50 µM; in that of `CCNc1nc(N)nc(Cl)n1` [Deisopropylatrazine], more than 90 µM.
The molecule `O=C(O)C(F)(F)C(F)(F)C(F)(F)C(F)(F)C(F)(F)F` [Perfluorohexanoic acid] came in with a CC50 at 24 h (AC50 (uM) modified / 1000, Tox21_110001=Tox21_300394, viability, 1 nM T3 present, 24 h) of more than 90 µM.
`CC1(C(=O)Nc2ccc(O)c(Cl)c2Cl)CCCCC1` [Fenhexamid] came in with a CC50 at 24 h (AC50 (uM) modified / 1000) of 76.7 µM.
Where the note is “AC50 (uM) modified / 1000”, `CCC(=O)C=CC1C(C)=CCCC1(C)C` (stereo not shown) [1-(2,6,6-Trimethyl-2-cyclohexen-1-yl)-1-penten-3-one] registered a half-maximal cytotoxic concentration (CC50) at 24 h of more than 90 µM.
Same read-out and setting: in the case of `CS(=O)(=O)CCNCc1ccc(-c2ccc3ncnc(Nc4ccc(OCc5cccc(F)c5)c(Cl)c4)c3c2)o1` [Lapatinib] it was more than 50 µM; in that of `CC(CC=O)CCCC(C)(C)O` (stereo not shown) [Hydroxycitronella], more than 90 µM.
`CCN(CC)CCCN(c1ccccc1)C1Cc2ccccc2C1` [Aprindine hydrochloride] registered a 50% cytotoxic concentration (CC50) at 24 h (AC50 (uM) modified / 1000) of 2.3 µM.
For the molecule `Fc1ccccc1[C@@H](F)COC1CCC(Nc2ncnc3[nH]ncc23)CC1` (stereo partly shown) [MK-968], it took 82.7 µM to reach half-maximal cytotoxicity (AC50 (uM) modified / 1000) (CC50 at 24 h).
On the same count and under the same terms, in the case of `Clc1cc(C(Cl)(Cl)Cl)cnc1Cl` [2,3-Dichloro-5-(trichloromethyl)pyridine] it was more than 90 µM; in that of `Cc1cn([C@H]2C[C@H](N=[N+]=[N-])[C@@H](CO)O2)c(=O)[nH]c1=O` [3'-Azido-3'-deoxythymidine], more than 90 µM.
The molecule `C=CC1=C(C(=O)O)N2C(=O)[C@@H](NC(=O)/C(=N\O)c3csc(N)n3)[C@H]2SC1` [Cefdinir] displayed a CC50 at 24 h (AC50 (uM) modified / 1000) of more than 50 µM.
Same read-out and setting: in the case of `C[C@]12CC[C@H]3[C@@H](CCC4=CC(=O)CC[C@@H]43)[C@@H]1CC[C@@H]2OC(=O)CCc1ccccc1` [Nandrolone phenpropionate] it was more than 50 µM; in that of `CC(C)=CCCC(C)CC(=O)O` (stereo not shown) [Citronellic acid], more than 90 µM.
With `C1=Cc2cccc3cccc1c23` [Acenaphthylene], the CC50 at 24 h (AC50 (uM) modified / 1000) was more than 90 µM.
Same read-out and setting: in the case of `CCCCCCCCCCCCCCCC(=O)OCC(COC(=O)CCCCCCCCCCCCCCC)OC(=O)CCCCCCCCCCCCCCC` [Tripalmitin] it was more than 50 µM.
On the same count and under the same terms, in the case of `C[C@@H]1O[C@@H](O[C@H]2C[C@@H](O)[C@]3(CO)[C@H]4[C@H](O)C[C@]5(C)[C@@H](C6=CC(=O)OC6)CC[C@]5(O)[C@@H]4CC[C@]3(O)C2)[C@H](O)[C@H](O)[C@H]1O` [Ouabain] it was more than 80 µM; in that of `O=C1c2ccccc2Cc2ccccc21` [Anthrone], 13.5 µM; in that of `C=CCCCCCCCCCCCCCC` [1-Hexadecene], more than 20 µM.
The same measure, in the same setting: in the case of `CCCOc1sc(C(=O)N2CCC(c3cc(CN)ccc3F)CC2)c(C)c1Br` [AVE8923] it was 3.52 µM; in that of `C=C(C)C(=O)NCCC[N+](C)(C)C` [N,N,N-Trimethyl-3-[(2-methylacryloyl)amino]propan-1-aminium chloride], more than 90 µM.
Where the note is “AC50 (uM) modified / 1000”, `CCCCCCCCCCCCc1ccccc1` [Dodecylbenzene] came in with a CC50 at 24 h of more than 90 µM.
Same read-out and setting: in the case of `CCN(CC)S(=O)(=O)c1ccc(C(=O)O)cc1` [Ethebenecid] it was more than 50 µM; in that of `O=c1[nH][nH]c2ccccc12` [3-Indazolinone], more than 90 µM.
